Ends that are not written are not given here.

A short description of experiment [1]: Osteocalcin subcutaneous infusion in wt mice: glucose tolerance after glucose injection. The format is in vivo, mouse. To be noted: wild type mice, 0.3 or 3 ng/hour subcutaneously for 14 days, then glucose injection, 120 minutes, vs PBS. The procedure: FIG. 11. […] Wt mice were infused subcutaneously with indicated doses of recombinant osteocalcin or PBS for 14 days before receiving a single injection of glucose. Blood glucose was measured thereafter at indicated times.
(§1) Metabolic studies. For glucose tolerance test (GTT), glucose (2 g/kg body weight (BW)) was injected intraperitoneally (IP) after an overnight fast and blood glucose was monitored using blood glucose strips and the Accu-Check glucometer (Roche) at indicated times. For glucose stimulated insulin secretion test (GSIS), glucose (3 g/kg BW) was injected IP after an overnight fast; sera were collected from tails and insulin measured as described (Mauvais-Jarvis et al., 2000). For insulin tolerance test (ITT), mice were fasted for six hours, injected IP with insulin (0.2 U/kg BW) and blood glucose levels were measured at indicated times as described (Mauvais-Jarvis et al., 2002). ITT data are presented as percentage of initial blood glucose concentration. […] Streptozotocin ([…] single injection, Sigma) was injected IP and blood glucose measured as described above every 2 days thereafter. […] Food intake was measured using metabolic cages as the daily change of food weight. Energy expenditure was measured using metabolic cages connected to a calorimeter (Columbus Instrument). Heat values (Kcal/Hr) were recorded over 2 days and reported to each mouse BW. […]

Experiment [2] in a line: Osteocalcin subcutaneous infusion in wt mice: insulin sensitivity after insulin injection. The class given is in vivo, mouse. The following applies: wild type mice, 0.3 or 3 ng/hour subcutaneously for 18 days, then insulin injection, 0-120 minutes, vs PBS. On the procedure: FIG. 12. […] Wt mice were infused subcutaneously with indicated doses of recombinant osteocalcin or PBS for 18 days before receiving a single injection of insulin. Blood glucose was measured thereafter at indicated times.
as §1

Setting [3] is: listed as recombinant osteocalcin.

Turning to “uncarboxylated osteocalcin: Recombinant mouse osteocalcin bacterially produced as GST fusion, cleaved with thrombin; completely undercarboxylated at all three sites (YLGASVPSPDPLEPTREQCELNPACDELSDQYGLKTAYKRIYGITI; not fully specified; ends and bridges not checked; UniProt P86546 50-95, looked up)”, the values for the glucose tolerance entry in experiment [1] and in experiment [1] (setting [3]) were “increased glucose tolerance” and “increases glucose tolerance”, respectively. Further, the insulin sensitivity entry in experiment [2] is “increased”; in experiment [2] (setting [3]) it was “increases insulin sensitivity”.

The values above are taken from patent US9746463B2 (THE TRUSTEES OF COLUMBIA UNIVERSITY IN THE CITY OF NEW YORK, priority 2006, dated 2017).
